# Measurements published in patent publication US20240158393A1, “PYRIDONE COMPOUNDS AND METHODS OF USE” (Exelixis, Inc., priority 2021, published 2024).
# Assays:
# Type in all cases: biochemical
# Human Met = target: T1, Human Met (Homo sapiens, UniProt P08581); test: Human Met kinase assay (33P radiometric / HTRF KinEase); conditions: protocols of Examples D-1 and/or D-2; read-out: c-Met IC50
# T1 construct: Human MET (residues 956-1390)
# Procedure: (§1) Kinase activity and compound inhibition were investigated using the ^33P-Phosphoryl transfer radiometric kinase assay, performed using the KinaseProfiler™ service of Eurofins Pharma Discovery Services UK Limited. Dose-response experiments were performed using nine compound concentrations in a 96-well microtiter plate. For each assay, all compounds were prepared to a 50× final assay concentration (50 μM) in 100% DMSO, then diluted in a half-log series, with the final top concentration at 1 μM. This working stock of the compound was added to the assay well as the first component in the reaction, followed by the remaining components as detailed in the following assay protocols below. The positive control wells (100% kinase activity) contain all components of the reaction including 2% DMSO (control for solvent effects), except the compound of interest. Blank wells contain all components of the reaction, with the reference inhibitor, staurosporine. This reference compound was used to abolish kinase activity and generated the 0% kinase activity base-line. IC50 values were calculated by nonlinear regression analysis using the sigmoidal dose-response (variable slope) curve fit on XLFit version 5.3 (ID Business Solutions).
# (§2) Kinase activity and compound inhibition were also investigated using the HTRF® KinEase assay (Cisbio Cat #62TKOPEB) per manufacturer's instructions. In short, compounds were delivered in 300 nL volumes at 10 different concentrations in DMSO (3% final) to empty 384-well assay plates (Corning cat #3824). A mixture of enzyme, 1 μM biotinylated peptide substrate, and buffer in 10 μL volume was added. The assay was started upon the addition of ATP (at Km). The 10 μL reaction was incubated at room temperature. The reaction was stopped upon the addition of detection buffer containing streptavidin-XL665 (5 μL) and TK antibody-Eu3+(5 μL). After a 60 min incubation at room temperature, the fluorescence at 665 nm and 620 nm was read on an Envision microplate reader (Perkin Elmer).
# (§3) Kinase activity normalized to DMSO (100% activity) and reference compound at 1 μM and (0% activity) was calculated using the fluorescence ratio […]. IC50 values were calculated by nonlinear regression analysis using a 4-parameter logistic curve fit in ActivityBase XE (IDBS).
# (§4) Example D-1: Human Met (residues R974-S1390 with A1209G and V1290L, 3.4 nM) was incubated with 8 mM MOPS pH 7.0, 0.2 mM EDTA, 250 μM KKKGQEEEYVFIE (SEQ ID NO:3), 1 mM sodium orthovanadate, 5 mM sodium-6-glycerophosphate, 10 mM magnesium acetate, and 10 μM [γ-^33P-ATP]. The reaction was initiated by the addition of the Mg/ATP mix. After incubation for 40 minutes at room temperature, the reaction was stopped by the addition of phosphoric acid to a concentration of 0.5%. A reaction aliquot of 10 μL was then spotted onto a P30 filtermat and washed four times for 4 minutes in 0.425% phosphoric acid and once in methanol prior to drying and scintillation counting. Incorporated ^33P was measured using the Wallac Microbeta scintillation counter (Perkin Elmer).
# (§5) Example D-2: Human MET (residues 956-1390; CarnaBio, 0.1 ng/well) was also incubated with enzymatic buffer (Cisbio) supplemented with 5 mM MgCl2, 1 mM DTT and 1 mM MnCl2. The mixture was added to the pre-plated compounds. The reaction was initiated upon addition of ATP at Km (3.0 μM). The reaction was incubated at room temperature for 40 min and stopped upon the addition of SA-XL665 and TK-antibody both diluted in EDTA-containing kinase detection buffer (Cisbio). The kinase activity was calculated as stated above and the IC50 values were reported.
# Human KDR = target: T2, Human KDR (Homo sapiens, UniProt P35968); test: Human KDR kinase assay (33P radiometric / HTRF KinEase); conditions: protocols of Examples B-1 and/or B-2
# T2 construct: Human KDR (residues K790-V1356, 55 nM); purchased Eurofins Pharma Discovery Services UK Limited (KinaseProfiler, B-1) and/or CarnaBio (B-2)
# T2 sequence (P35968 790-1356): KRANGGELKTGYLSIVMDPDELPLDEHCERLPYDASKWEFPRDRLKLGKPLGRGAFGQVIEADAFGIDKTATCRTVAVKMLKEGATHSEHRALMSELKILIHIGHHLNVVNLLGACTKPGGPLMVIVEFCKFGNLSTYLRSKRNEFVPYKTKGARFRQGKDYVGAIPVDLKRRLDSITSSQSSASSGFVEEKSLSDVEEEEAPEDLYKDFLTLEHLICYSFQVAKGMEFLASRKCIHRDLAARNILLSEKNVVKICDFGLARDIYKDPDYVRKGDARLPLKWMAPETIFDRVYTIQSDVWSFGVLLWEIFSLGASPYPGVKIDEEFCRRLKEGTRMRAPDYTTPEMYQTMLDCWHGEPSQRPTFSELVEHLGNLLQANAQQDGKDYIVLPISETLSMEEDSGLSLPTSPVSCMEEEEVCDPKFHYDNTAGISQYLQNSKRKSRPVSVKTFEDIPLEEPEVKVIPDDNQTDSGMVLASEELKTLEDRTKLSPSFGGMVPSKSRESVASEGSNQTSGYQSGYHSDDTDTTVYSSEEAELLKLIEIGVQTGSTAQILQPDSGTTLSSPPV
# Procedure: as §1, §2, §3
# as §4, with “B-1:” for “D-1:”, “KDR” for “Met”, “K790-V1356, 55” for “R974-S1390 with A1209G and V1290L, 3.4”, “0.33 mg/mL myelin basic protein,” for “250 μM KKKGQEEEYVFIE (SEQ ID NO:3), 1 mM sodium orthovanadate, 5 mM sodium-6-glycerophosphate,”
# as §5, with “B-2:” for “D-2:”, “KDR” for “MET”, “790-1356;” for “956-1390;”, “MnCl2,” for “DTT”, “DTT.” for “MnCl2.”, “(4.0” for “(3.0”
# Human Mer = target: T3, Human Mer (Homo sapiens, UniProt Q12866); test: Human Mer kinase assay (33P radiometric / HTRF KinEase); conditions: protocols of Examples C-1 and/or C-2
# T3 construct: Human Mer (residues R557-E882 with H628Q and R794A, 0.7 nM); purchased Eurofins Pharma Discovery Services UK Limited (KinaseProfiler service)
# T3 sequence (Q12866 557-882 limits assumed): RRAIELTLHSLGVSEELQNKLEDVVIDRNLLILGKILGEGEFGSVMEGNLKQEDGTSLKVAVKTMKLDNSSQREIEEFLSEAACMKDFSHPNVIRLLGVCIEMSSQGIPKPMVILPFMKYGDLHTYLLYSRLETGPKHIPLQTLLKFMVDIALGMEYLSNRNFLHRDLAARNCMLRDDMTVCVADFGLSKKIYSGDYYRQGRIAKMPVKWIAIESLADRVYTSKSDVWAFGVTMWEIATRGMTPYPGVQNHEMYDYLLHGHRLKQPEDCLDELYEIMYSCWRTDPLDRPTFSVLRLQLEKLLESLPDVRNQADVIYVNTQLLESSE
# Procedure: as §1, §2, §3
# Example C-1: Human Mer (residues R557-E882 with H628Q and R794A, 0.7 nM) was incubated with 8 mM MOPS pH 7.0, 0.2 mM EDTA, 30 mM NaCl, 250 μM GGMEDIYFEFMGGKKK (SEQ ID NO: 2), 10 mM magnesium acetate, and 10 μM [γ-^33P-ATP]. The reaction was initiated by the addition of the Mg/ATP mix. After incubation for 40 minutes at room temperature, the reaction was stopped by the addition of phosphoric acid to a concentration of 0.5%. A reaction aliquot of 10 μL was then spotted onto a P30 filtermat and washed four times for 4 minutes in 0.425% phosphoric acid and once in methanol prior to drying and scintillation counting. Incorporated ^33P was measured using the Wallac Microbeta scintillation counter (Perkin Elmer).
# Example C-2: Human MER (residues 528-999; CarnaBio, 1 ng/well) was also incubated with enzymatic buffer (Cisbio) supplemented with 5 mM MgCl2 and 1 mM DTT. The mixture was added to the pre-plated compounds. The reaction was initiated upon addition of ATP at Km (40 μM). The reaction was incubated at room temperature for 60 min and stopped upon the addition of SA-XL665 and TK-antibody both diluted in EDTA-containing kinase detection buffer (Cisbio). The kinase activity was calculated as stated above and the IC50 values were reported.
# T1 sequence (P08581 974-1390 limits assumed): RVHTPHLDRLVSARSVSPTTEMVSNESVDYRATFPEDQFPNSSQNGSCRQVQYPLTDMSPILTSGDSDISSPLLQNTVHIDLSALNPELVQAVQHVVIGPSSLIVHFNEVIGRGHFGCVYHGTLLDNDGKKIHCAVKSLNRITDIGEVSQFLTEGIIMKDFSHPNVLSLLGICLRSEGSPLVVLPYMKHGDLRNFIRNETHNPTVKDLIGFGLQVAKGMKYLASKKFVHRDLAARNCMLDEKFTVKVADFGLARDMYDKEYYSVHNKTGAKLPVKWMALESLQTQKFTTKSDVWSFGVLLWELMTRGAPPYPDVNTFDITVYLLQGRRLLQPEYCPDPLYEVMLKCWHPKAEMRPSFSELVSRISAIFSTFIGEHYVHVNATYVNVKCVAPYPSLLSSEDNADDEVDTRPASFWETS
Structure (SMILES),IC50 (Human Met) [nM],IC50 (Human KDR) [nM],IC50 (Human Mer) [nM]
"COCCOc1cc2nccc(Oc3ccc(NC(=O)c4c(C)nc(C)c(OC)c4O)cc3)c2nc1OC [Compound 71, 4-Hydroxy-5-methoxy-N-[4-[[6-methoxy-7-(2-methoxyethoxy)-1,5-naphthyridin-4-yl]oxy]phenyl]-2,6-dimethylpyridine-3-carboxamide]",> 300,≤ 100,> 300
"COCCOc1cc2ncnc(Oc3ccc(NC(=O)c4c(C)nc(C)c(OC)c4O)cc3F)c2nc1OC [Compound 72, N-[3-Fluoro-4-[6-methoxy-7-(2-methoxyethoxy)pyrido[3,2-d]pyrimidin-4-yl]oxyphenyl]-4-hydroxy-5-methoxy-2,6-dimethylpyridine-3-carboxamide]",> 300,≤ 100,> 300
"COc1cc2nccc(Oc3ccc(NC(=O)c4c5n(cc(C6=CCCC6)c4=O)CCOC5)cc3F)c2nc1OC [Compound G1-1, 7-(Cyclopenten-1-yl)-N-[4-[(6,7-dimethoxy-1,5-naphthyridin-4-yl)oxy]-3-fluorophenyl]-8-oxo-3,4-dihydro-1H-pyrido[2,1-c][1,4]oxazine-9-carboxamide]",≤ 100,100 to 300,≤ 100
"COc1cc2nccc(Oc3ccc(NC(=O)c4c5n(cc(C6=CCCC6)c4=O)CCOC5)cc3)c2nc1OC [Compound G1-6, 7-(Cyclopenten-1-yl)-N-[4-[(6,7-dimethoxy-1,5-naphthyridin-4-yl)oxy]phenyl]-8-oxo-3,4-dihydro-1H-pyrido[2,1-c][1,4]oxazine-9-carboxamide]",≤ 100,> 300,≤ 100
"COc1cc2nccc(Oc3ccc(NC(=O)c4c5n(cc(C6=CCOCC6)c4=O)CCOC5)cc3F)c2nc1OC [Compound G1-7, 7-(3,6-Dihydro-2H-pyran-4-yl)-N-[4-[(6,7-dimethoxy-1,5-naphthyridin-4-yl)oxy]-3-fluorophenyl]-8-oxo-3,4-dihydro-1H-pyrido[2,1-c][1,4]oxazine-9-carboxamide]",≤ 100,> 300,≤ 100

# Continued, values first:
IC50 (Human Met) [nM],IC50 (Human KDR) [nM],IC50 (Human Mer) [nM],Structure (SMILES)
≤ 100,≤ 100,≤ 100,"COc1cc2nccc(Oc3ccc(NC(=O)c4c5n(c(C)c(C6=CCCC6)c4=O)CCOC5)cc3F)c2nc1OC [Compound 69, 7-(Cyclopenten-1-yl)-N-[4-[(6,7-dimethoxy-1,5-naphthyridin-4-yl)oxy]-3-fluorophenyl]-6-methyl-8-oxo-3,4-dihydro-1H-pyrido[2,1-c][1,4]oxazine-9-carboxamide]"
> 300,≤ 100,> 300,"COCCOc1cc2nccc(Oc3ccc(NC(=O)c4c(C)nc(C)c(OC)c4O)cc3F)c2nc1OC [Compound 70, N-[3-Fluoro-4-[[6-methoxy-7-(2-methoxyethoxy)-1,5-naphthyridin-4-yl]oxy]phenyl]-4-hydroxy-5-methoxy-2,6-dimethylpyridine-3-carboxamide]"
> 300,> 300,> 300,"COc1cnc2c(Oc3ccc(NC(=O)c4c(C)n(C)c(C)c(OC)c4=O)cc3F)ccnc2c1 [Compound 75, N-[3-Fluoro-4-[(7-methoxy-1,5-naphthyridin-4-yl)oxy]phenyl]-5-methoxy-1,2,6-trimethyl-4-oxopyridine-3-carboxamide]"
> 300,> 300,> 300,"COc1cc2nccc(Oc3ccc(NC(=O)c4c(C)n(C)c(C)c(OC)c4=O)cc3)c2nc1OC [Compound 76, N-[4-[(6,7-Dimethoxy-1,5-naphthyridin-4-yl)oxy]phenyl]-5-methoxy-1,2,6-trimethyl-4-oxopyridine-3-carboxamide]"
> 300,> 300,> 300,"COc1cc2nccc(Oc3ccc(NC(=O)c4c(C)n(C)c(C)c(OC)c4=O)cc3F)c2nc1OC [Compound 77, N-[4-[(6,7-Dimethoxy-1,5-naphthyridin-4-yl)oxy]-3-fluorophenyl]-5-methoxy-1,2,6-trimethyl-4-oxopyridine-3-carboxamide]"
> 300,> 300,> 300,"COc1cc2nccc(Oc3ccc(NC(=O)c4c(C)n(C)c(C)c(C#N)c4=O)cc3F)c2nc1OC [Compound 78, 5-Cyano-N-[4-[(6,7-dimethoxy-1,5-naphthyridin-4-yl)oxy]-3-fluorophenyl]-1,2,6-trimethyl-4-oxopyridine-3-carboxamide]"
